Data set [1] addresses LmCPB2.8ΔCTE (CPB) (Leishmania mexicana, UniProt P36400). The following applies: cited from earlier work. From the text: (§1) In addition to the membrane, peptides may have other therapeutic targets in Leishmania. Enzymes are essential for functional integrity and virulence, highlighting the fundamental role of cysteine proteases in the infectious process, so their inhibition can have high therapeutic potential, enabling the design of new drugs. In L. mexicana, three cysteine protease genes were identified as virulence factors: lmcpa, lmcpb, and lmcpc. Of these, lmcpb encodes a protein product like cathepsin L and is the most abundant in the amastigote form of the parasite, so this enzyme is an i ...

Data set [2] has as its target LmCPB2.8ΔCTE (CPB), cysteine protease of Leishmania mexicana (L. mexicana) (UniProt P36400).
For data set [3] the following is noted: POPC–POPS–Erg (16:3:1) LUVs. Here is the method:
To evaluate the effect of monomeric and dimeric peptides on the lipid membrane and relate it to the mechanism of action, vesicle permeabilization studies were carried out for evaluating the possible mechanisms on membrane. The leakage assays were carried out with carboxyfluorescein (CF) internalized in the mimetic membranes. The vesicles of POPC–Chol (4:1) and POPC–POPS (phosphatidylserine)–ergosterol (16:3:1) were employed. These mimetic membranes were designed considering the compositions of phospholipids and steroids in the host membrane and in the Leishmania membrane, respectively. The constitution of the cell membrane of Leishmania varies according to the morphology of the parasite and its stage of development, but is more negative than the cell membranes of mammals, which allow for cationic AMPs to bind more easily. Our studies were based on the membrane of the promastigote form, which is characterized by the presence of mainly phosphatidylcholine, phosphatidylethanolamine, phosphatidylinositol, phosphatidylserine, and ergosterol, in addition to diglycerides and glycolipids containing mannose and galactose. In the amastigote form of Leishmania, there is a higher concentration of fatty acids and cholesterol, while triglycerides and ergosterol decrease during the transition from promastigotes to amastigotes. In addition, the main phospholipids found are sphingomyelin and phosphatidylserine, with lower proportions of phosphatidylinositol and lysophosphatidylethanolamine.
Large unilamellar vesicles (LUVs) composed of POPC (1-palmitoyl-2-oleoyl-sn-glycero-3-phosphatidylcholine) and cholesterol (Chol) (4:1), or POPC, POPS (1-palmitoyl-2-oleoyl-sn-glycero-3-serine), and ergosterol (Erg) (16:3:1) were prepared according to the methods described by Lorenzón et al.. […] We employed a Hitachi U-2000 spectrophotometer (TSHa) (Hitachi, Tokyo, Japan) or a Fluorolog-3 FL3-122 spectrofluorometer (Horiba Jobin Yvon, Glasgow, UK) ((TSHa)2K) for analyses.

Data set [4] can be described thus: Carboxyfluorescein leakage from POPC-Chol (4:1) vesicles mimicking host membrane. The following applies: POPC–Chol (4:1) LUVs, peptide tested at 1 and 5 µmol L^−1.
Experimental: Large unilamellar vesicles (LUVs) composed of POPC (1-palmitoyl-2-oleoyl-sn-glycero-3-phosphatidylcholine) and cholesterol (Chol) (4:1), or POPC, POPS (1-palmitoyl-2-oleoyl-sn-glycero-3-serine), and ergosterol (Erg) (16:3:1) were prepared according to the methods described by Lorenzón et al. [34]. […] We employed a Hitachi U-2000 spectrophotometer (TSHa) (Hitachi, Tokyo, Japan) or a Fluorolog-3 FL3-122 spectrofluorometer (Horiba Jobin Yvon, Glasgow, UK) ((TSHa)2K) for analyses.
The test system of data set [5] is L. mexicana intracellular amastigotes. Briefly: Infection index, L. mexicana intracellular amastigotes in macrophages. The format is cell-based, Leishmania mexicana. The note with it: 24 h of treatment. As for the experimental part: During the infection process, the amastigotes replicated in macrophages are transmitted to healthy cells, leading to the amplification of infection; the greater the parasitic load is, the worse the infection is. The infection index (percentage of infected cells x number of parasites per infected cell) was used to evaluate this transmission. In this work, the infection index was determined using L. mexicana for 24 h (Figure 6) and 48 h of treatment (Figure 7).
The L. amazonensis promastigotes (MPRO/BR/1972/M1841-LV-79) were grown in LIT culture medium, while the L. mexicana promastigotes (MNYC/BZ/62/M379) were cultivated in Schneider’s medium (Sigma-Aldrich, St. Louis, MO, USA), supplemented with 10% heat-inactivated fetal bovine serum (FBS; Gibco/Invitrogen, Waltham, MA, USA) at 28 °C until reaching the mid-log phase of growth. Macrophages were sourced from the peritoneal cavity of Swiss mice using the methodology outlined by de Almeida et al.. Anti-promastigote and anti-amastigote assays of L. mexicana and L. amazonensis and their cytotoxic activity were conducted as previously described. IC50 is the concentration capable of killing 50% of the parasites. […] Cytotoxicity for the host cells and the protozoan species was compared and expressed as the selectivity index (SI), calculated as the ratio of the CC50 for macrophages to the IC50 for the protozoan species.

The test system of data set [6] is L. mexicana promastigotes. Nature of the data set: Membrane damage by flow cytometry with propidium iodide. The following applies: 1 × IC50; promastigotes 5 × 10^6 cells mL^−1, PI 80 µg mL^−1 20 min; given in Figure 11. The format is cell-based, Leishmania mexicana. As for the experimental part: The mechanism of action of the peptides on the membrane was also evaluated by flow cytometry using propidium iodide. Flow cytometry has been considered more reliable for studies of cell susceptibility because it provides intrinsic information about cells, such as size and complexity. The use of fluorochromes allows for the evaluation of a wide range of physiological or morphological parameters, such as membrane integrity, pH, membrane potential, and viability. The results presented here (Figure 11) are expressed as the fluorescence intensity of the PI-labeled L. mexicana cells, considering that the damage caused to the parasite membrane facilitated the entry of PI into the cell nucleus.
For flow cytometry assays, the promastigotes of L. mexicana were grown in Schneider medium (Sigma) supplemented with inactivated fetal bovine serum. […] After incubation, the promastigotes were washed twice with PBS and labeled with propidium iodide (PI) (80 μg mL^−1) for 20 min, followed by centrifugation at 2000× g for 10 min and resuspension in 500 μL of PBS. The samples were analyzed using an Accuri C6 flow cytometer (BD Biosciences, Franklin Lakes, NJ, USA) and proprietary software, with at least 50,000 events effectively included in each analysis. All the experiments were performed using biological duplicates in triplicate at each experimental point.

For data set [7], the system named is L. amazonensis intracellular amastigotes. Nature of the data set: Infection index, L. amazonensis intracellular amastigotes in macrophages. The format is cell-based, Leishmania amazonensis. The note with it: 24 h of treatment.
Data set [8] concerns L. mexicana promastigotes. Briefly: Membrane damage by fluorescence microscopy (PI/Hoechst). The class given is cell-based, Leishmania mexicana. The following applies: 1.25 and 2.5 µmol L^−1, 24 h; ratio PI-labeled / Hoechst-labeled parasites. Here is the method: Fluorescence microscopy assays were also employed to investigate the mechanism of action of the peptides. […] In addition, the ratio of PI-labeled cells to Hoechst-labeled cells was used to determine the percentage of cells that had suffered some type of membrane damage. Images were also obtained after the treatments of the promastigote form with the TSHa peptide, the dimeric (TSHa)2K peptide, and the Amp B control drug at concentrations of 2.5 and 1.25 µmol L^−1 after 2 and 24 h to evaluate the mechanism of action of these molecules and whether the time of exposure to the compounds might affect their activity. […] The results for the other treatments are provided in the Supplementary Materials (Figures S1–S10).
For fluorescence microscopy, assays were carried out with promastigotes of L. mexicana in the exponential phase of growth in passage P3 at a concentration of 1 × 10^7 cells mL^−1. Treatments were performed with Amp B and the peptides at concentrations of 1.25 or 2.5 μmol L^−1 for 2 or 24 h, respectively. The parasites were labeled with 5 μg mL^−1 of Hoechst solution (stock: 1 mg mL^−1) for 5 min, followed by the addition of PI (1 mg mL^−1) to a final concentration of 40 μg mL^−1 and incubation for 20 min at room temperature. […] Images were acquired with a fluorescence microscope (Nikon DS-R11,10 Nikon Instruments Inc., Melville, NY, USA) at 40× magnification. […]

Data set [9] deals with L. amazonensis amastigotes. Nature of the data set: microbe, parasite or virus in culture. The class given is cell-based, Leishmania amazonensis. The note with it: Leishmania amazonensis, read-out: IC50 Amastigote. As for the experimental part: (§2) Macrophages were sourced from the peritoneal cavity of Swiss mice using the methodology outlined by de Almeida et al.. Anti-promastigote and anti-amastigote assays of L. mexicana and L. amazonensis and their cytotoxic activity were conducted as previously described. […] Cytotoxicity for the host cells and the protozoan species was compared and expressed as the selectivity index (SI), calculated as the ratio of the CC50 for macrophages to the IC50 for the protozoan species.

Data set [10] deals with peritoneal macrophages. Briefly: Cytotoxicity in peritoneal macrophages. The class given is cell-based. The note with it: peritoneal macrophages of Swiss mice. As for the experimental part:
(§3) The L. amazonensis promastigotes (MPRO/BR/1972/M1841-LV-79) were grown in LIT culture medium, while the L. mexicana promastigotes (MNYC/BZ/62/M379) were cultivated in Schneider’s medium (Sigma-Aldrich, St. Louis, MO, USA), supplemented with 10% heat-inactivated fetal bovine serum (FBS; Gibco/Invitrogen, Waltham, MA, USA) at 28 °C until reaching the mid-log phase of growth. Macrophages were sourced from the peritoneal cavity of Swiss mice using the methodology outlined by de Almeida et al.. Anti-promastigote and anti-amastigote assays of L. mexicana and L. amazonensis and their cytotoxic activity were conducted as previously described. IC50 is the concentration capable of killing 50% of the parasites. The drug concentration that inhibited 50% of cell growth was denoted as the 50% cytotoxic concentration (CC50). Cytotoxicity for the host cells and the protozoan species was compared and expressed as the selectivity index (SI), calculated as the ratio of the CC50 for macrophages to the IC50 for the protozoan species.

Data set [11] relates to L. mexicana amastigotes. Nature of the data set: microbe, parasite or virus in culture. The format is cell-based, Leishmania mexicana. The note with it: Leishmania mexicana, ± standard deviation, SD. As for the experimental part: as §2
Data set [12] relates to L. mexicana promastigotes. Nature of the data set: microbe, parasite or virus in culture. The following applies: Leishmania mexicana, ± standard deviation, SD, read-out: IC50 Promastigote. The format is cell-based, Leishmania mexicana. As for the experimental part: as §3
In data set [13] the test system is L. amazonensis promastigotes. Briefly: microbe, parasite or virus in culture. The class given is cell-based, Leishmania amazonensis. The note with it: Leishmania amazonensis, read-out: IC50 Promastigote. Here is the method:
as §3

Data set [14] addresses cathepsin B. The note with it: cited from earlier work.
From the text: as §1

Where two headings read alike, the source gives them in different places. Positions of bridges follow the written chain, without caps; N, C: chain ends. Residues, ends and D or L forms follow the SMILES beside them. Chains are numbered I, II in the order given. No end group written: not given here.

One may read the IC50 as the concentration that inhibits the measured activity by half. With `Cc1ccc(C(=O)[C@@]23C(=O)OC(=O)C2N(C)[C@]2(c4ccccc4)Sc4ccccc4[C@H]32)cc1` (stereo partly drawn) [derivative of benzo[b]thiophene, (4aS,9bS,9cS)-4-methyl-9c-(4-methylbenzoyl)-4a-phenyl-4,4a,9b,9c-tetrahydro-1H-benzo[4,5]thieno[2,3-b]furo[3,4-d]pyrrole-1,3(3aH)-dione], in data set [1] (read-out: IC50-CEC, LmCPB2.8△CTE (CEC)), the IC50 was 3.7 µM.
In data set [2], dimeric peptide (TSHa)2K showed an IC50 of inhibition of the enzyme activity of CPB (LmCPB2.8ΔCTE) of 3.6 µmol/L and an Inhibitory Activity at 20 μmol L^−1 (%): inhibition of the enzyme activity of CPB (LmCPB2.8ΔCTE) by the peptide of 98%.
For `CC(C)C[C@H](NC(=O)[C@H]1O[C@@H]1C(=O)O)C(=O)NCCCCN=C(N)N` (relative stereo) [Peptide E64, L-trans-epoxysuccinyl-leucylamido-(4-guanidino)butane], the “inhibition of Leishmania CPB, in words” value in data set [1] is given as “in the nanomolar range is a potent irreversible inhibitor”.
As to `CC[C@H](C)[C@H](NC(=O)CNC(=O)[C@H](CO)NC(=O)[C@H](CC(C)C)NC(=O)[C@@H](N)Cc1ccccc1)C(=O)N[C@H](C(=O)NCC(=O)N[C@@H](CCSC)C(=O)N[C@@H](CC(C)C)C(=O)NCC(=O)N[C@@H](CCCCN)C(=O)N[C@@H](CC(C)C)C(=O)N[C@@H](Cc1ccccc1)C(=O)NCCCC[C@H](NC(=O)[C@H](Cc1ccccc1)NC(=O)[C@H](CC(C)C)NC(=O)[C@H](CCCCN)NC(=O)CNC(=O)[C@H](CC(C)C)NC(=O)[C@H](CCSC)NC(=O)CNC(=O)[C@@H](NC(=O)[C@@H](NC(=O)CNC(=O)[C@H](CO)NC(=O)[C@H](CC(C)C)NC(=O)[C@@H](N)Cc1ccccc1)[C@@H](C)CC)C(C)C)C(N)=O)C(C)C` [(TSHa)2K] (I: H-FLSGIVGMLGKLFK-NH2 / II: H-FLSGIVGMLGKLF; amide I:14-II:C; N-terminus assumed), the CF release is on record as 20% in data set [3] (peptide 1 µmol L^−1, fluorescence) and 45% in [3] (peptide 5 µmol L^−1, fluorescence). The “permeabilization of POPC–Chol vesicles, in words” value in [4] is “No permeabilization”. Further, the “decrease of infection rate (infection index) vs untreated infected cells” value in data set [5] is 5.5 fold; in data set [7] it was 3.8 fold. In data set [6], the “V1-L gate (cells not labeled with PI)” value was found to be 52.8%. For the same molecule, the “V1-R gate (PI-labeled cells)” value in [6] was 47.2%. In addition, the “membrane damage, in words” value in [8] is given as “caused damage to the membrane”.
Regarding `C[C@@H]1[C@H](O)[C@@H](C)/C=C/C=C/C=C/C=C/C=C/C=C/C=C/[C@H](O[C@@H]2O[C@H](C)[C@@H](O)[C@H](N)[C@@H]2O)C[C@@H]2O[C@](O)(C[C@@H](O)C[C@@H](O)[C@H](O)CC[C@@H](O)C[C@@H](O)CC(=O)O[C@H]1C)C[C@H](O)[C@H]2C(=O)O` [Amp B, Amphotericin B], the IC50 is 630 ± 20 nM in data set [9]; 630 ± 1200 nM in data set [11] (24 h of treatment, read-out: IC50 Amastigote 24 h of Treatment); 630 ± 1200 nM in data set [11] (48 h of treatment, read-out: IC50 Amastigote 48 h of Treatment); 500 ± 200 nM in [12]; 700 ± 200 nM in [13]. In addition, the “CC50 Peritoneal Macrophages” value in data set [10] (Table 1, ± standard deviation, SD) was found to be 24 ± 0.02 µmol/L. The “CC50 Peritoneal Macrophage” value in data set [10] (Table 2) was found to be 24 ± 0.4 µmol/L. In data set [6], the “V1-L gate (cells not labeled with PI)” value is on record as 55.2%. The “V1-R gate (PI-labeled cells)” value in [6] was 44.8%. The “membrane damage, in words” value in data set [8] was “caused damage to the membrane”.
As usually defined, the Ki is the equilibrium dissociation constant of an inhibitor or competing ligand from its target. Consider Z-Arg-Leu-Val-Gly-Ile-Val-O-methyl, for which, in data set [14], the Ki was 0.088 nM.
In the case of FLSGIVGMLGKLF-NH2 [temporin peptide TSHa], in data set [2], the IC50 of inhibition of the enzyme activity of CPB (LmCPB2.8ΔCTE) was 9.2 µmol/L and the Inhibitory Activity at 20 μmol L^−1 (%): inhibition of the enzyme activity of CPB (LmCPB2.8ΔCTE) by the peptide amounted to 94.2%.
